Data from patent US20230346969A1, “INTERMEDIATE FOR PREPARING ANTIBODY-DRUG CONJUGATE (ADC), PREPARATION METHOD THEREFOR, AND USE THEREOF” (priority 2020, published 2023).
pIC50: −log10 of the molar value. Where two headings read alike, the source gives them in different places. Where a SMILES comes first, the peptide text is derived from it. [ ]: non-standard residue; d: D form. The star is where a group is joined. Dolaproine = CO[C@@H]([C@@H]1CCCN1)[C@@H](C)C(=O)O; Dil = CC[C@H](C)[C@H](NC)[C@@H](CC(=O)O)OC; X1 = C[C@@H](N*)[C@@H](O)c1ccccc1; NMeV = CN[C@H](C(=O)O)C(C)C

Experiments:
[1] = test system: HT29; assay: Cell viability assay (CCK-8); type: cell-based; details: CCK-8, 96 hours, Colon, read-out: IC50 (95% Cl)
Experimental: (§1) Cell viability was determined using Cell Counting Kit 8 (CCK-8). Cells were seeded into 96-well plates at 3000-10000 cells/well. After incubation overnight, drugs were added at different concentrations. Plates were incubated in a 5% CO2, 37° C. humidified chamber for 96 hours. CCK8 reagent was added thereto and the plates were placed back to the incubator until the absorbance at 450 nm of untreated control cells was greater than 1.0. Growth inhibition was measured as the percent growth relative to untreated cells. Dose response curve was generated from the mean values of two or three tests, and IC50 values were calculated using Prism GraphPad software.
(§2) The anti-tumor efficacy of different payloads on different tumor cell lines was detected by CCK-8, and the results are shown in FIG. 5.

[2] = test system: COLO205; assay: Cell viability assay (CCK-8); type: cell-based; details: CCK-8, 96 hours, read-out: IC50 (95% Cl)
Experimental: as §1, §2

[3] = test system: HCC1806; assay: Cell viability assay (CCK-8); type: cell-based; details: CCK-8, 96 hours, Mamary, read-out: IC50 (95% Cl)
Experimental: as §1, §2

[4] = test system: CFPAC-1; assay: Cell viability assay (CCK-8); type: cell-based; details: CCK-8, 96 hours, read-out: IC50 (95% Cl)
Experimental: as §1, §2

[5] = test system: Capan-1; assay: Cell viability assay (CCK-8); type: cell-based; details: CCK-8, 96 hours, Pancreas, read-out: IC50 (95% Cl)
Experimental: as §1, §2

[6] = test system: SKBR3; assay: Cell viability assay (CCK-8); type: cell-based; details: CCK-8, 96 hours, read-out: IC50 (95% Cl)
Experimental: as §1, §2

[7] = test system: SCLC-21H; assay: Cell viability assay (CCK-8); type: cell-based; details: CCK-8, 96 hours, read-out: IC50 (95% Cl)
Experimental: as §1, §2

[8] = test system: MDA-MB-468; assay: Cell viability assay (CCK-8); type: cell-based; details: CCK-8, 96 hours, read-out: IC50 (95% Cl)
Experimental: as §1, §2

[9] = test system: SK-MES-1; assay: Cell viability assay (CCK-8); type: cell-based; details: CCK-8, 96 hours, Lung, read-out: IC50 (95% Cl)
Experimental: as §1, §2

[10] = test system: NCI-H1688; assay: Cell viability assay (CCK-8); type: cell-based; details: CCK-8, 96 hours, Lung, read-out: IC50 (95% Cl)
Experimental: as §1, §2

[11] = test system: BXPC-3; assay: Cell viability assay (CCK-8); type: cell-based; details: CCK-8, 96 hours, Pancreas, read-out: IC50 (95% Cl)
Experimental: as §1, §2

[12] = test system: MDA-MB-231; assay: Cell viability assay (CCK-8); type: cell-based; details: CCK-8, 96 hours, Mamary, read-out: IC50 (95% Cl)
Experimental: as §1, §2

[13] = test system: tumor cell lines with different expression levels of Trop-2; assay: Cell viability assay (CCK-8), comparison across the cell panel; type: cell-based; details: tumor cell lines with different expression levels of Trop-2
Experimental: as §1, §2

[14] = Adverse effects and weight loss of mice treated in the efficacy models; type: in vivo, BALB/c nu/nu mice
Source text: (§3) Five-week-old female athymic BALB/c nu/nu mice were purchased from Charles River Company (Shanghai, China), and mice were randomly divided into 5-6 mice/group. Animal handling and procedures were approved and performed in accordance with the requirements of the Institutional Animal Care and Use Committee (IACUC) of Shanghai Institute of Materia Medica, Chinese Academy of Sciences. All models were inoculated subcutaneously on the side of mice. BXPC-3, HCC1806 and NCIH1688 cells were established by injecting and homogenizing 5 × 10^6 cells in Matrigel matrix. COLO205 cells were established by injecting and suspending 1 × 10^7 cells in Matrigel matrix. After the tumor volume reached about 200 mm^3, the tumor-bearing mice were randomly divided into treatment groups and a control group according to the tumor volume. Each drug was administered intraperitoneally. Mice were injected at doses of 3 or 10 mg/kg (10 mL/kg). Tumor volume was defined as length × ½ × width × width. The percentage of inhibition was calculated by the following formula: (1-average tumor volume of the treatment group/average tumor volume of the control group)×100%. Toxicity of the different treatment groups was assessed by monitoring weight loss.

[15] = test system: NCIH1688 cells; assay: Transplanted tumor from NCIH1688 cells alone (not expressing Trop-2); type: in vivo, BALB/c-nu/nu mice; details: hRS7-VK-PTX 10 mg/kg, hRS7-VK-MMAE 3 mg/kg
Source text: as §3, with “Mice were injected at doses of 3 or 10 mg/kg (10 mL/kg). Tumor volume was defined as length × ½ × width × width.” left out
(§4) A mixture of Trop-2-positive tumor cells BXPC-3 and Trop-2-negative tumor cells NCIH1688 or NCIH1688 cells alone were inoculated into BALB/c-nu/nu mice (FIG. 1e, right panel), and the “bystander effect” of hRS7-VK-PTX was detected in a mouse transplanted tumor model.

[16] = Dose tolerability, single intravenous dose acute toxicity; type: in vivo; details: single intravenous dose 60 mg/kg, BALB/c mice
Experimental: Dose tolerability assay was performed in BALB/c mice (3 mice per dose). The drug was given in a single intravenous dose. The injection doses of hRS7-VK-PTX were 60, 80 and 100 mg/kg, and the injection doses of hRS7-VK-MMAE were 60 and 80 mg/kg, respectively. Toxicity was assessed by observing mouse behavior, weight loss and survival. The weight change rate (%) was calculated as: (body weight - body weight before treatment)/(body weight before treatment) × 100%.
The safety of relatively high doses of hRS7-VK-PTX in BALB/c mice was studied by an acute toxicity experiment with single intravenous administration in mice.

[17] = test system: mixture of Trop-2-positive tumor cells BXPC-3 and Trop-2-negative tumor cells NCIH1688; assay: Bystander effect: transplanted tumor from mixture of BXPC-3 and NCIH1688 cells; type: in vivo, BALB/c-nu/nu mice; details: 3 mg/kg, transplanted tumors heterogeneously expressing Trop-2
Source text: as §3, with “Mice were injected at doses of 3 or 10 mg/kg (10 mL/kg). Tumor volume was defined as length × ½ × width × width.” left out
as §4

[18] = test system: NCIH2452; assay: Cell viability assay (CCK-8); type: cell-based; details: ADCs; CCK-8, 96 hours; cell 'HOC2401' [sic], Lung; read-out: IC50 (95% Cl)
Experimental: as §1, §2

[19] = test system: SKBR3 cells; assay: Endocytosis and intracellular localization of ADC by confocal microscopy; type: cell-based; details: 5 µg/mL, 37° C., 45 or 90 min
Experimental: SKBR3 cells were incubated with 5 µg/mL of hRS7-VK-PTX or hRS7-VK-SN38 in a 24-well plate (1 × 10^4 cells/well) in a 5% CO2, 37° C. incubator for 45 or 90 min. Cells were washed once with PBS, fixed and permeabilized. After washing, cells were stained with 488 goat anti-human IgG (H&L) or 555 anti-rabbit IgG F(ab′)2 fragment. Nuclear DNA was stained with 4′,6-dimidyl-2-phenylindole (DAPI). Immunofluorescence was recorded with an Olympus BK71 confocal microscope.
SKBR3 cells were incubated with ADC molecules at 37° C. for 45 or 90 min. Unbound ADC was removed by washing cells in a culture medium, then the cells were fixed and permeabilized. The marker proteins LAMP-1, GM130 and clathrin were detected with their respective antibodies and a secondary antibody conjugated to Alex®555 (red). Anti-Trop-2 ADC was detected with DyLight®488-conjugated secondary antibody (green). DAPI was used to stain nuclear DNA (blue).

[20] = free payloads, cell 'H123' [sic]
[21] = free payloads, cell 'CCAO205' [sic], Colen
[22] = free payloads, cell CFPAC-1, Pancreas
[23] = free payloads, cell 'Cepes-3' [sic]
[24] = free payloads, cell 'SK8RS' [sic], Mamary
[25] = free payloads, cell 'ECLC 214' [sic], Small cell lung
[26] = free payloads, cell printed 'MOA-413-468', Mamary
[27] = free payloads, cell 'SK-M55-1' [sic]
[28] = free payloads, cell 'NCl-H1828' [sic]
[29] = free payloads, cell 'BKFC-Y' [sic]
[30] = free payloads, 'MCP-83-21' [sic]
[31] = hRS7-VK-MMAE 3 mg/kg, hRS7-VK-SN38 3 or 10 mg/kg, PTX alone
[32] = ADCs, cell printed 'COXC28', Colon
[33] = ADCs, cell CPAC-1 [sic], Pancreas

Molecule | pIC50 [1, 20] | pIC50 [2, 21] | pIC50 ([3]; free payloads, 'HCCHOI' [sic]) | pIC50 [4, 22] | pIC50 [5, 23] | pIC50 [6, 24] | pIC50 [7, 25] | pIC50 [8, 26] | pIC50 [9, 27] | pIC50 [10, 28] | pIC50 [11, 29] | pIC50 [12, 30] | adverse effects or weight loss in treated mice, relative to hRS7-VK-PTX (none) [14, 31] | pIC50 ([1]; ADCs, cell '3128' [sic]) | pIC50 [2, 32] | pIC50 ([3]; ADCs, 'HOC1906' [sic]) | pIC50 [4, 33] | pIC50 ([5]; ADCs, Cxoo-1 [sic]) | pIC50 [18] | pIC50 ([6]; ADCs, 'SKERS' [sic], Mammary) | other results
CCc1c2c(nc3ccc(O)cc13)-c1cc3c(c(=O)n1C2)COC(=O)[C@]3(O)CC [SN38] | < 6.52 | 7.48 | 9.38 | ~9.55 | 8.25 | 8.67 | 8.67 | 8.43 | 8.26 | ~8.31 | 7.68 | 6.99 | – | – | – | – | – | – | – | – | –
CC(=O)O[C@H]1C(=O)[C@@]2(C)[C@H]([C@H](OC(=O)c3ccccc3)[C@]3(O)C[C@H](OC(=O)[C@H](O)[C@@H](NC(=O)c4ccccc4)c4ccccc4)C(C)=C1C3(C)C)[C@]1(OC(C)=O)CO[C@@H]1C[C@@H]2O [PTX, Paclitaxel] | – | – | – | – | – | – | – | – | – | – | – | – | stark contrast | – | – | – | – | – | – | – | cytotoxicity of individual payload molecules [13]: weaker than that of MMAE, but close to that of SN38; pIC50 ([1]; Homo sapiens, HT-29, free payloads, cell 'H123' [sic]): < 6.52; pIC50 ([2]; Homo sapiens, COLO 205, free payloads, cell 'CCAO205' [sic], Colen): < 6.52; pIC50 ([3]; Homo sapiens, HCC1806, free payloads, 'HCCHOI' [sic]): 8.61; pIC50 ([4]; Homo sapiens, free payloads, cell CFPAC-1, Pancreas): < 6.52; pIC50 ([5]; Homo sapiens, CAPAN-1, free payloads, cell 'Cepes-3' [sic]): 8.13; pIC50 ([6]; Homo sapiens, SK-BR-3, free payloads, cell 'SK8RS' [sic], Mamary): ~6.07; pIC50 ([7]; Homo sapiens, SCLC-21H, free payloads, cell 'ECLC 214' [sic], Small cell lung): ~7.49; pIC50 ([8]; Homo sapiens, MDA-MB-468, free payloads, cell printed 'MOA-413-468', Mamary): 8.14; pIC50 ([9]; Homo sapiens, SK-MES-1, free payloads, cell 'SK-M55-1' [sic]): 7.27; pIC50 ([10]; NCI-H1688, free payloads, cell 'NCl-H1828' [sic]): 7.43; pIC50 ([11]; Homo sapiens, BXPC-3, free payloads, cell 'BKFC-Y' [sic]): 9.33; pIC50 ([12]; Homo sapiens, MDA-MB-231, free payloads, 'MCP-83-21' [sic]): < 6.52
hRS7-VK-MMAE | – | – | – | – | – | – | – | – | – | – | – | – | stark contrast | ~6.60 | < 6.52 | 10.76 | < 6.52 | < 6.52 | ~8.92 | ~8.65 | killing effect on transplanted tumors not expressing Trop-2 [15]: had a killing effect; adverse reactions [16]: severe adverse reactions; body weight loss [16]: more than 15%; tumor growth inhibition index (TGI) [17]: 91.7%; pIC50 ([7]; ADCs, SRM-C-21H): 10.49; pIC50 ([8]; ADCs, SRM-M9-409, Mammary): 10.19; pIC50 ([9]; ADCs, cell 'SK-WSS-7' [sic]): < 6.49; pIC50 ([10]; ADCs, cell 'HCl-11685' [sic]): ~8.43; pIC50 ([11]; ADCs, cell RMCA [sic]): 10.91; pIC50 ([12]; ADCs, cell 'SRM-K9-231' [sic]): < 6.52
hRS7-VK-SN38 | – | – | – | – | – | – | – | – | – | – | – | – | – | 8.25 | 7.78 | 9.06 | 8.50 | 7.91 | 7.99 | 8.84 | internalization and intracellular localization [19]: did not undergo significant internalization; adverse effects or weight loss in treated mice, relative to hRS7-VK-PTX (none) ([14]; mouse, in vivo): stark contrast; pIC50 ([7]; ADCs, SRM-C-21H): 7.79; pIC50 ([8]; ADCs, SRM-M9-409, Mammary): 8.86; pIC50 ([9]; ADCs, cell 'SK-WSS-7' [sic]): 7.09; pIC50 ([10]; ADCs, cell 'HCl-11685' [sic]): < 6.52; pIC50 ([11]; ADCs, cell RMCA [sic]): 8.81; pIC50 ([12]; ADCs, cell 'SRM-K9-231' [sic]): 8.52
CC[C@H](C)[C@@H]([C@@H](CC(=O)N1CCC[C@H]1[C@H](OC)[C@@H](C)C(=O)N[C@H](C)[C@@H](O)c1ccccc1)OC)N(C)C(=O)[C@@H](NC(=O)[C@@H](NC)C(C)C)C(C)C [MMAE] (H-[NMeV]V[Dil][Dolaproine]-X1) | ~8.52 | 9.81 | 10.75 | < 6.52 | 9.44 | 10.49 | 10.88 | ~9.85 | 9.65 | 8.76 | 9.58 | < 6.52 | – | – | – | – | – | – | – | – | –
